Measured values: the supplement of paper PMC11208160

Assay: recombinant barcode read abundance after kanamycin selection (control-corrected) (log10(CPM+1)); higher = more efficient recombination; sequences stand for … in AGTGCAGAGAAAATCGGCCAGTTTTCTCTGCCTGCAGTCCGCATGCCGT…AGATTTATGCAGCGGACTGCCTTTCTCCCAAAGTGATAAACCGGACAGTATCATGGACCGGTTTTCCCGGTAATCCGTATTTGCAAGGTTGGTTTCACT; site = the 11-nt target
How it was run: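 Recombination efficiency comes from barcode counts at recombinant junctions, converted to counts per million, averaged and corrected against the control. Values appear as log10(CPM+1). They were obtained from a pooled E. coli screen in which each oligo paired a target with an IS621 bridge RNA target-binding loop, and cells were plated in duplicate on chloramphenicol/ampicillin LB agar or on chloramphenicol/ampicillin/kanamycin with 0.1 mM IPTG.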
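Note: IS621 recombinase and bridge RNA in Escherichia coli cells.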

| Sequence | recombinant barcode read abundance (log10) |
| --- | --- |
| GTGCGCTCTTGGGTTCTAACCTGTTGCGC (site CCAGCTGCTAG) | 0.0659 |
| GTGCGCTCTTGGGTTCTAACCTGTTGCGC (site GTGCGCTCTGC) | 0.145 |
| GTGGAAGCTTGGGTTCTAACCTGTTGCCT (site GAGGAAGCTAG) | 0.316 |
| GTGGAAGCTTGGGTTCTAACCTGTTGCCT (site GCGGAAGCTAG) | 0.367 |
| GTGGAAGCTTGGGTTCTAACCTGTTGCCT (site GGGGAAGCTAG) | 0.262 |
| GTGGAAGCTTGGGTTCTAACCTGTTGCCT (site GTGGAAGCTAG) | 1.1 |
| GTGGATGCTTGGGTTCTAACCTGTTGCCT (site GGGGATTCTAG) | 0.28 |
| GTGGATGCTTGGGTTCTAACCTGTTGCCT (site GTGGATGCTAG) | 1.6 |
| GTGGGCCCTTGGGTTCTAACCTGTTGCCT (site GTATGCCCTAG) | 0.02 |
| GTGGGCCCTTGGGTTCTAACCTGTTGCCT (site GTGGGCCCTAG) | 2.07 |
| GTGGGCCCTTGGGTTCTAACCTGTTGCTG (site ATCGGCCCTCA) | 0.302 |
| GTGGGCCCTTGGGTTCTAACCTGTTGCTG (site GTGGGCCCTCA) | 2.73 |
| GTGGGCTCTTGGGTTCTAACCTGTTGCCT (site CTGGGCTCTTG) | 0.0529 |
| GTGGGCTCTTGGGTTCTAACCTGTTGCCT (site GTGGGCTCTAG) | 2.01 |
| GTGGTAGCTTGGGTTCTAACCTGTTGCCT (site GTGGTAACTAG) | 0.857 |
| GTGGTAGCTTGGGTTCTAACCTGTTGCCT (site GTGGTACCTAG) | 0.209 |
| GTGGTAGCTTGGGTTCTAACCTGTTGCCT (site GTGGTAGCTAG) | 1.42 |
| GTGGTAGCTTGGGTTCTAACCTGTTGCCT (site GTGGTATCTAG) | 0.0998 |

| Sequence | recombinant barcode read abundance (log10) |
| --- | --- |
| GTGGTGGCTTGGGTTCTAACCTGTTGCCT (site GTGGTGGCTAG) | 0.764 |
| GTGGTGGCTTGGGTTCTAACCTGTTGCCT (site GTTGGGGCTAG) | 0.151 |
| GTGTAGGCTTGGGTTCTAACCTGTTGCAG (site GTGTAGGCTCT) | 2.66 |
| GTGTAGGCTTGGGTTCTAACCTGTTGCAG (site GTGTAGTCTCG) | 0.0205 |
| GTGTATCCTTGGGTTCTAACCTGTTGCCA (site GTGAAGCCTTG) | 0.186 |
| GTGTATCCTTGGGTTCTAACCTGTTGCCA (site GTGTATCCTTG) | 0.196 |
| GTGTATTCTTGGGTTCTAACCTGTTGCCT (site ACTGTCACTCC) | 0.0809 |
| GTGTATTCTTGGGTTCTAACCTGTTGCCT (site GTGTATTCTAG) | 1.44 |
| GTGTCTACTTGGGTTCTAACCTGTTGCCT (site GTGTCTACTAG) | 0.754 |
| GTGTCTACTTGGGTTCTAACCTGTTGCCT (site TTGTATACTAG) | 0.0293 |
| GTGTCTCCTTGGGTTCTAACCTGTTGCGA (site GAGTGTCCTTC) | 0.00692 |
| GTGTCTCCTTGGGTTCTAACCTGTTGCGA (site GTGTCTCCTTC) | 0.996 |
| GTGTGGACTTGGGTTCTAACCTGTTGCAG (site GTGAGGACTCA) | 0.0484 |
| GTGTGGACTTGGGTTCTAACCTGTTGCAG (site GTGTGGACTCT) | 2.18 |
| GTGTGGCCTTGGGTTCTAACCTGTTGCCA (site GTGTGGCCTTG) | 0.574 |
| GTGTGGCCTTGGGTTCTAACCTGTTGCCA (site TCCGATACTAC) | 0 |
| GTGTGGCCTTGGGTTCTAACCTGTTGCTT (site GAGTGCCCTAA) | 0.107 |
| GTGTGGCCTTGGGTTCTAACCTGTTGCTT (site GTGTGGCCTAA) | 0.294 |
